Experimental data from patent US9963474B2, “Mitochondria-targeted dicarbonyl sequestering compounds” (MEDICAL RESEARCH COUNCIL, priority 2013, dated 2018).

What was measured:
[1] = system: RLM respiring on glutamate/malate; experiment: Effect on respiration of isolated RLM (oxygen electrode); parameters: species or system rat
Experimental: (A, B) RLM respiring on glutamate/malate at 37° C. were incubated with various concentrations of MitoG for 7 min in an oxygen electrode to measure coupled respiration (A) before ADP was added to measure phosphorylating respiration (B). Data are the percentage of the respiration rates of untreated controls (dashed lines). (C and D) C2C12 cells (C) or BAECs [Bovine Aortic Endothelial Cells; Cell Applications Inc, San Diego, Calif.] (D) were incubated with MitoG for 24 h and cell survival was then determined using the MTS assay. Data are expressed as a percentage of the untreated controls (dashed line). (E-H) BAECs were incubated with MitoG for 2 h at 37° C. and the cellular oxygen consumption rate (OCR) after the sequential additions of oligomycin, FCCP and antimycin A/rotenone were then measured using a Seahorse XF24 analyser. (E) OCR due to ATP synthesis, (F) OCR due to proton leak, (G) reserve capacity and (H) non-mitochondrial oxygen consumption. […]
Rat liver mitochondria (RLM) were prepared at 4° C. in STE buffer [250 mM sucrose, 5 mM Tris and 1 mM EGTA, pH 7.4 (HCl)] by homogenisation and differential centrifugation. Protein concentration was determined using the biuret assay relative to bovine serum albumin (BSA) and was typically 40-60 mg/ml. […] Oxygen consumption rates were determined from the slopes using Chart v5.5.6. for Mac (AD Instruments, Australia). […]

[2] = Partition coefficients between PBS and octan-1-ol; assay type: physicochemical; settings: octan-1-ol/PBS, means ± SE of 3 determinations, read-out: Partition coefficient (converted)
Experimental: RP-HPLC was performed using a Gilson 321 pump with a C18 column (Jupiter 300 Å, Phenomenex) with a Widepore C18 guard column (Phenomenex). Samples (1 ml) were injected through a 0.22 μm PVDF filter (Millex, Millipore). HPLC buffer A [0.1% TFA in water] and HPLC buffer B (90% acetonitrile and 0.1% TFA) were used and a gradient was run at 1 ml/min at room temperature as follows: 0-2 min—5% B; 2-17 min—5-100% B; 17-19 min—100% B; 19-22 min—100-5% B. Peaks were detected by absorbance at 220 nm (UV/Vis 151, Gilson) and by fluorescence (excitation and emission wavelengths of 344 and 433 nm; RF-10AXL, Shimadzu). Partition coefficients between PBS and octan-1-ol were determined as previously described.

C2C12 cells = experiment: Cell survival, MTS assay, C2C12; assay type: cell-based, mouse; settings: C2C12, 24 h
Experimental: (A, B) RLM respiring on glutamate/malate at 37° C. were incubated with various concentrations of MitoG for 7 min in an oxygen electrode to measure coupled respiration (A) before ADP was added to measure phosphorylating respiration (B). Data are the percentage of the respiration rates of untreated controls (dashed lines). (C and D) C2C12 cells (C) or BAECs [Bovine Aortic Endothelial Cells; Cell Applications Inc, San Diego, Calif.] (D) were incubated with MitoG for 24 h and cell survival was then determined using the MTS assay. Data are expressed as a percentage of the untreated controls (dashed line). (E-H) BAECs were incubated with MitoG for 2 h at 37° C. and the cellular oxygen consumption rate (OCR) after the sequential additions of oligomycin, FCCP and antimycin A/rotenone were then measured using a Seahorse XF24 analyser. (E) OCR due to ATP synthesis, (F) OCR due to proton leak, (G) reserve capacity and (H) non-mitochondrial oxygen consumption. Results are means±S.E. of three independent experiments. *, P<0.05 or **, P<0.01 relative to untreated controls.
To assess cell viability, C2C12 cells or BAECs were seeded at a density of 10,000 cells/well and 40,000 cells/well, respectively, in 96-well plates. […] After 2 h absorbance was read at 490 nm in a plate reader (SpectraMax Plus 384, Molecular Devices). […]

[3] = system: horse-radish peroxidase (HRP); experiment: Stability under oxidative conditions (HRP and hydrogen peroxide); assay type: physicochemical
Experimental: MitoG 100 μM was mixed with 0.07 U horse-radish peroxidase (HRP) in a 1 ml curvette containing 100 mM potassium phosphate buffer (pH 6.0) and 0.5% (w/v) hydrogen peroxide at room temperature. A reference curvette and a blank were similarly set up with DMSO in place of MitoG. Scanning UV/Vis spectra were then taken at 1 min, 5 min and 10 min after mixing using a spectrophotometer (Shimadzu UV-2501PC). Spectra of MitoG-containing mixtures were compared against the spectrum of the blank. To determine if any reaction observed could be prevented by the HRP inhibitor, NaN3 [58, 59] separate incubations were set up as above but containing 8 mg/ml NaN3 as well.
Oxidative degradation of o-phenylenediamine is known to result in the production of methylglyoxal and glyoxal. This oxidative degradation can lead to an overestimation of dicarbonyl levels in samples if o-phenylenediamine is used to try to quantify methylglyoxal and glyoxal levels in biological samples. To determine if MitoG could undergo similar oxidative degradation to methylglyoxal and glyoxal, MitoG was incubated with HRP and hydrogen peroxide in vitro. Scanning UV/Vis spectra of the reaction mixture were taken before and after the addition of HRP. HRP was used as a representative peroxidase that could catalyse an oxidative degradation in a cellular environment. […] These changes are prevented by the HRP inhibitor, NaN3.

coupled respiration (proton leak) ([1]; 5 μM MitoG): slight increase in proton leak
phosphorylating respiration ([1]; up to 5 μM MitoG): no effect
logD [2]: 0.38
degradation in the presence of HRP ([3]; 100 μM, 0.07 U HRP, 0.5% hydrogen peroxide, pH 6.0, room temperature): degrades in the presence of HRP
Structure (SMILES): Nc1ccc(OCCCCCC[P+](c2ccccc2)(c2ccccc2)c2ccccc2)cc1N [MitoG, (6-(3,4-Diaminophenoxy)hexyl)triphenylphosphonium chloride]
concentration above which cell viability decreased (C2C12 cells): above 10 μM
oxidative degradation to methylglyoxal and glyoxal ([3]; HRP and hydrogen peroxide, product absorbs at 430 nm): does not undergo oxidative degradation to form methylglyoxal and glyoxal
